# Measured values reported in patent publication US20080318938A1, “METHODS FOR TREATING ABERRANT CELL PROLIFERATION DISORDERS” (priority 2007, published 2008).
# Experiments:
# [1] = test system: TK-10; assay: Inhibition of cell proliferation (MTT); format: cell-based; details: Homo sapiens; TK-10, Renal; 48 hours
# Description: (§1) Inhibition of cell proliferation is determined in human tumor cell lines. Innoculation density and doubling times for specific cell lines are listed at World Wide Web URL “dtp.nci.nih.gov/docs/misc/common_files/cell_list.html.”
# (§2) • 1. Plate adherent cells the day before starting the experiment in 180 μl growth media (see list hereafter). • 2. Day of experiment, count and plate suspension cells in 180 μl growth media (see list on next page). • 3. Make 10× Compound, vehicle, and chemotherapeutic cocktail • a. Compound (1× to 10×) • i. 10 μM Compound to 100 μM • ii. 3 μM Compound to 30 μM • iii. 1 μM Compound to 10 μM • iv. 0.3 μM Compound to 3 μM • v. 0.1 μM Compound to 1 μM • b. Vehicle • i. PBS, equivalent to the volume used for 10 μM Compound (1× is ˜0.06% PBS) • c. Chemotherapeutic cocktail (1× to 10×): • i. 1 μM Velcade to 10 μM • ii. 100 μM Etoposide to 1 mM • iii. 20 μM Taxol to 200 μM • 4. Add 20 μl of the 10× compound/vehicle/chemotherapeutic cocktail to cells. • 5. Incubate at 37° C., 5% CO2 for 48 hours. • 6. Aspirate media. For suspension cells, spin plate at 1500 RPM for 10 minutes. Use a multichannel pipettor to slowly remove media. • 7. Add 200 μl of Thiazolyl Blue Tetrazolium Bromide (MTT) to each well: 0.863 mg/ml MTT in growth media.
# (§3) Proliferation of several cancer cells was inhibited by compound TA1-1B (which is a particular mixture of the isomers represented by TA1-1A), as shown in the following table (Table 1). The value EC50 is the amount of Compound TA1-1B that results in 50% inhibition of proliferation of the indicated cell type.
# [2] = test system: SF-268; assay: Inhibition of cell proliferation (MTT); format: cell-based; details: Homo sapiens; SF-268, CNS; 48 hours
# Description: as §1, §2, §3
# [3] = test system: SF-295; assay: Inhibition of cell proliferation (MTT); format: cell-based; details: Homo sapiens; SF-295, CNS; 48 hours
# Description: as §1, §2, §3
# [4] = test system: SNB-75; assay: Inhibition of cell proliferation (MTT); format: cell-based; details: Homo sapiens; SNB-75, CNS; 48 hours
# Description: as §1, §2, §3
# [5] = test system: NCI-H322M; assay: Inhibition of cell proliferation (MTT); format: cell-based; details: Homo sapiens, Non Small Cell Lung, 48 hours
# Description: as §1, §2, §3
# [6] = test system: SNB-19; assay: Inhibition of cell proliferation (MTT); format: cell-based; details: Homo sapiens; SNB-19, CNS; 48 hours
# Description: as §1, §2, §3
# [7] = test system: NCI-H460; assay: Inhibition of cell proliferation (MTT); format: cell-based; details: Homo sapiens; NCI-H460, Non Small Cell Lung; 48 hours
# Description: as §1, §2, §3
# [8] = test system: RPMI-6666; assay: Inhibition of cell proliferation (MTT); format: cell-based; details: Homo sapiens; RPMI-6666, Lymphoma; 48 hours
# Description: as §1, §2, §3
# [9] = test system: MCF7; assay: Inhibition of cell proliferation (MTT); format: cell-based; details: Homo sapiens; MCF7, Breast; 48 hours
# Description: as §1, §2, §3
# [10] = test system: H9; assay: Inhibition of cell proliferation (MTT); format: cell-based; details: Homo sapiens; H9, Lymphoma; 48 hours
# Description: as §1, §2, §3
# [11] = test system: Kasumi-1; assay: Inhibition of cell proliferation (MTT); format: cell-based; details: Homo sapiens; Kasumi-1, Leukemia; 48 hours
# Description: as §1, §2, §3
# [12] = test system: ST486; assay: Inhibition of cell proliferation (MTT); format: cell-based; details: Homo sapiens; ST486, Lymphoma; 48 hours
# Description: as §1, §2, §3
# [13] = test system: sst (non-selective) Somatostatin receptor; assay: Receptor binding
# [14] = test system: bone marrow cells (BMCs); assay: RNA synthesis and cell viability of bone marrow cells from treated rats; format: in vivo; details: 10 mg/kg daily for 5 days, BMCs isolated 24 hours after last dose
# Description: Rats were treated with 10 milligrams per kilogram of Compound TA1-1B daily for five (5) days. Twenty-four (24) hours after the last dose the bone marrow was isolated, and bone marrow cells (BMCs) were tested for RNA synthesis activity and cell viability
# The following process was utilized to measure total RNA synthesis. For animals treated with compound TA1-1B, BMCs were isolated and plated overnight at 100,000 cells per mL. Next day cells were incubated for one hour with 5 μCi of [^3H]-uridine. To measure total RNA synthesis, total RNA from treated cells was isolated with a RNease kit (QIAGEN), levels of total RNA were assessed with Ribogreen reagent (Invitrogen) and the newly synthesized tritiated RNA was measured in a scintillation Counter (Perkin Elmer) in a tritium channel.
# The following process was utilized to measure cell viability, which involves the use of an Alamar Blue dye. Cells are counted using a hemocytometer, and 4,000-5,000 cells (per well) in 100 microliter of medium are seeded into wells 96-well plate. […] Fluorescence is recorded at an excitation wavelength of 544 nm and emission wavelength of 590 nm using a microplate reader. Fluorescence of […] dye is detected and effects of drug treatment on BMC viablity is determined.
# [15] = test system: κ-opioid (KOP) opioid receptor; assay: Receptor binding
# [16] = Distribution in human whole blood fractions (LC-MS/MS); format: in vitro ADME
# Description: Twenty five mL healthy donor whole blood was collected in the presence of heparin. Human whole blood was added with Compound TA1-1B to reach final concentration of 3 uM. Whole blood was gently mized and incubated at 37° C. for 4 hrs. At the end of the incubation 0.5 mL blood was collected and centrifuge at 500×g to separate the platelet-rich plasma for further analysis.
# In order to isolate white blood cells, 5 ml of treated blood was subjected to Ficoll density gradient centrifugation. At the end of the centrifugation formed buffy coat containing most of the white blood cells and Ficolle fractions containing red blood cells and granulocites were collected separately. Obtained white cell fraction was washed with 5 ml of isotonic phosphate buffer and saved for further analysis. Obtained fractions were subjected to Compound TA1-1B quantitative analysis using LC-MS/MS. Fractions obtained from untreated whole blood were used as corresponding biological matrices in LC-MS/MS based bioanalysis.
# The most part of added compound (93.7%) was found in blood formed elements than in plasma indicating to a potentially high volume of distribution and good tissue penetration of compound TA1-1B.
# [17] = 3 uM, 37° C., 4 hrs, White cells
smiles,measurement,setting,value
CN1CCC[C@H]1CCNC(=O)c1cn2c3c(c(N4CCC(c5cnccn5)C4)c(F)cc3c1=O)Oc1cc3ccccc3cc1-2 (stereo partly shown) [TA1-1B],EC50,[1],3.33 µM
same,EC50,[2],1.23 µM
same,EC50,[3],4.27 µM
same,EC50,[4],2.31 µM
same,EC50,[5],4.28 µM
same,EC50,[6],4.63 µM
same,EC50,[7],4.01 µM
same,EC50,[8],1.59 µM
same,EC50,[9],3.46 µM
same,EC50,[10],2.24 µM
same,EC50,[11],2.05 µM
same,EC50,[12],1.28 µM
same,% inhibition @ 1 uM,[13],62%
same,Toxicity to bone marrow cells (RNA synthesis and cell viability),[14],not toxic
same,% inhibition @ 1 uM,[15],52%
same,Mass balance Amount,"[16]; 3 uM added, 5 mL",14.7 nmol
same,Mass balance Conc.,"[16]; 3 uM added, 5 mL",2.95 µM
same,% of compound in plasma fraction,"[16]; 3 uM, 37° C., 4 hrs, Plasma",6.2%
same,Amount in plasma fraction,"[16]; 3 uM, 37° C., 4 hrs, Plasma",0.92 nmol
same,Conc. in plasma fraction,"[16]; 3 uM, 37° C., 4 hrs, Plasma",0.37 µM
same,% of compound in red cells fraction,"[16]; 3 uM, 37° C., 4 hrs, Red cells",81.5%
same,Amount in red cells fraction,"[16]; 3 uM, 37° C., 4 hrs, Red cells",12.0 nmol
same,Conc. in red cells fraction,"[16]; 3 uM, 37° C., 4 hrs, Red cells",4.85 µM
same,Total amount in all fractions,"[16]; 3 uM, 37° C., 4 hrs, Total",14.7 nmol
same,% of compound in white cells fraction,[16]; [17],12.2%
same,Amount in white cells fraction,[16]; [17],1.8 nmol
same,Conc. in white cells fraction,[16]; [17],81.79 µM
same,Part of added compound found in blood formed elements,"[16]; 3 uM, 37° C., 4 hrs, red and white cells versus plasma",93.7%
